Patent US10889573B2, “Anthelmintic quinoline-3-carboxamide derivatives” (Bayer Animal Health GMBH, priority 2016, dated 2021)

Legend:
[1] = tested on: Nippostrongylus brasiliensis; assay: In vitro assay 2: Nippostrongylus brasiliensis (NIPOBR), acetylcholine esterase readout; details: read-out: activity (reduction of AChE compared to negative control); for inhibition at 1 µg/mL: 1 μg/ml; for inhibition at 10 µg/mL: 10 μg/ml
In short: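 Readout was acetylcholine esterase activity released into the medium, compared with negative control, after exposing adult worms to compounds at final 10 ppm (10 μg/ml) or 1 ppm (1 μg/ml). Worms were first washed in antibiotic/amphotericin B-containing saline; compounds were dissolved in DMSO.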

Cooperia curticei = details: Cooperia curticei, 120 h, read-out: activity (larval mortality)
Method: In Vitro Assay 6: Cooperia curticei (COOPCU L3)
Solvent: dimethyl sulfoxide
Approximately 40 nematode larvae (Cooperia curticei) are transferred into a test tube containing the compound solution.
After 5 days percentage of larval mortality is recorded. 100% efficacy means all larvae are killed; 0% efficacy means no larvae are killed.

[2] = tested on: Dirofilaria immitis third-stage larvae; assay: In vitro assay 4: Dirofilaria immitis (DIROIM L4), motility; details: 72 h, read-out: EC50 (reduction of motility)
Haemonchus contortus = details: 120 h, read-out: activity (larval mortality)
Method: In Vitro Assay 7: Haemonchus contortus (HAEMCO L3)
Solvent: dimethyl sulfoxide
Approximately 40 larvae of the red stomach worm (Haemonchus contortus) are transferred into a test tube containing compound solution.
After 5 days the percentage of larval mortality is recorded. 100% efficacy means all larvae are killed, 0% efficacy means no larvae are killed.

[3] = tested on: Dirofilaria immitis microfilariae; assay: In vitro assay 3: Dirofilaria immitis microfilariae (DIROIM L1), motility; details: 72 h, read-out: EC50 (reduction of motility), 72 h incubation
[4] = tested on: Litomosoides sigmodontis third-stage larvae; details: 72 h, read-out: EC50 (reduction of motility)
Method: In Vitro Assay 5: Litomosoides sigmodontis (LTMOSI L3)
10 Litomosoides sigmodontis third-stage larvae, which were freshly isolated from the pleural cavity of an infected rodent, were added to wells of a microtitre plate containing a nutrient medium and the test compound in DMSO. Compounds were tested in concentration-response assay in duplicate. Larvae exposed to DMSO and no test compounds were used as negative controls. Larvae were evaluated after 72 h of incubation with the compound. Efficacy was determined as the reduction of motility in comparison to the negative control. Based on the evaluation of a wide concentration range, concentration-response curves as well as EC50-values were calculated.

C. elegans Slo-1a = C. elegans Slo-1a (Caenorhabditis elegans, UniProt Q95V25); details: pE50 (negative decadic logarithm of EC50), CHO cells expressing C. elegans Slo-1a, voltage sensitive dye
C. elegans Slo-1a, sequence (Q95V25 whole entry): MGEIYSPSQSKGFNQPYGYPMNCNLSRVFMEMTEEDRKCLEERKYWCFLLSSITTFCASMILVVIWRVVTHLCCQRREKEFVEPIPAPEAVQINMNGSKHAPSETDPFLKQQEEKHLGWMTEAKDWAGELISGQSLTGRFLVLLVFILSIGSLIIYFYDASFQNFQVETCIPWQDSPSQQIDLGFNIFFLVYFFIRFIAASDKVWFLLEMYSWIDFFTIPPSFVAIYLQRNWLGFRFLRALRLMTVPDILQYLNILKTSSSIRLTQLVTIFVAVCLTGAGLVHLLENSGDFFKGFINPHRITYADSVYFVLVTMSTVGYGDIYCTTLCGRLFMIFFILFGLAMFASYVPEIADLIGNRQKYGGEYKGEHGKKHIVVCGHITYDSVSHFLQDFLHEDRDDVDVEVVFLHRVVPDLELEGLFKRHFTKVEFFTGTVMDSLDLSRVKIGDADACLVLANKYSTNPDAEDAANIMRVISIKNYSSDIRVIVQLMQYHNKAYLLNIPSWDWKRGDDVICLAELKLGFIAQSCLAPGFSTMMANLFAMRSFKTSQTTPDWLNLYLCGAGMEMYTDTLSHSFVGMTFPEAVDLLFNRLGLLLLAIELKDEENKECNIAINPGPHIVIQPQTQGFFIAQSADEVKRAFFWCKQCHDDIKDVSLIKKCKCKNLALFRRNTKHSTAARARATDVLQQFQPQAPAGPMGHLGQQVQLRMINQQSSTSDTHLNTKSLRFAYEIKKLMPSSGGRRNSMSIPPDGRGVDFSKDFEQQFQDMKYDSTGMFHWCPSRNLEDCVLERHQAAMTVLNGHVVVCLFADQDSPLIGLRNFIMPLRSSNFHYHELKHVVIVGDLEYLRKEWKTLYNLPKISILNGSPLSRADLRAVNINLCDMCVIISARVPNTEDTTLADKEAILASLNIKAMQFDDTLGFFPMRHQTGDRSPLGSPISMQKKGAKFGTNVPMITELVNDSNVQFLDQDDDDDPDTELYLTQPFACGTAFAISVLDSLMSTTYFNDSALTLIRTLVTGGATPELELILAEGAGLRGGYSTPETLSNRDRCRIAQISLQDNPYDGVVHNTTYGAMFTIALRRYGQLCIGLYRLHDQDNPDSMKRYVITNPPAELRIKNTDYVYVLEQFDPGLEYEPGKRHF
Method: In Vitro Assay 1: C. elegans Slo-1a—Action at a Recombinant C. elegans Cell Line
Cells were cultured at 37° C. and 5% CO2 in MEMalpha with Gutamax I (Invitrogen, Nr.: 32571), supplemented with 10% (v/v) heat inactivated fetal bovine serum (Invitrogen, Nr.: 10500), G418 (1 mg/ml, Invitrogen, Nr.: 10131). Cells were detached using Accutase (Sigma, Nr.: A6964).
Membrane Potential Measurements
Laboratory compound testing was performed on 384-well microtiter plates (MTPs, Greiner, Nr.: 781092). 8000 cells/well were plated onto 384-well MTPs and cultured for 20 to 24 hours at 37° C. and 5% CO2. After removal of the cell culture medium, the cells were washed once with tyrode (150 mM NaCl, 0.3 mM KCl, 2 mM CaCl2, 1 mM MgCl2, 0.8 mM NaH2PO4, 5 mM Glucose, 28 mM Hepes, pH 7.4) and then loaded with the voltage sensitive dye of the Membrane Potential Assay Kit diluted in tyrode for 1 h at room temperature.
After starting the measurement of fluorescence using a FLIPR Tetra (Molecular Devices, Exc. 510-545 nm, Emm. 565-625 nm), test compounds were added followed by the addition of KCl tyrode (final assay concentration: 70 mM KCl, 2 mM CaCl2, 1 mM MgCl2, 0.8 mM NaH2PO4, 5 mM Glucose, 28 mM Hepes, pH 7.4, including the voltage sensitive dye). The measurement was completed after 7 minutes.
The data were evaluated by using the ActivityBase XLfit software (IDBS) for curve fitting and calculation of the half-maximal effective concentration (EC50) and are reported as negative decadic logarithm (pE50).

[5] = log P by HPLC on reversed phase columns (Method L0)

In the case of O=C(N[C@H]1CCOc2ccccc21)c1cnc2c(-c3cc(Cl)cc(Cl)c3)cccc2c1-c1ccncc1 [Example 396], the inhibition at 1 µg/mL [1] is reported as > 80%, the mortality at 4 ppm (Cooperia curticei) is reported as 100% and the mortality at 20 ppm (Cooperia curticei) is reported as 100%. For the same molecule, the EC50 [2] was < 0.1 µg/mL, the mortality at 4 ppm (Haemonchus contortus) was 90% and the mortality at 20 ppm (Haemonchus contortus) was 100%. The EC50 [3] was < 0.1 µg/mL, the EC50 [4] was < 0.1 µg/mL and the EC50 (C. elegans Slo-1a) was < 3.16 nM.

For COc1c(C(=O)N[C@H]2CCOc3ccccc32)cnc2c(-c3cc(Cl)cc(Cl)c3)cccc12 [Example 373, 8-(3,5-dichlorophenyl)-N-[(4S)-3,4-dihydro-2H-chromen-4-yl]-4-methoxyquinoline-3-carboxamide], the inhibition at 1 µg/mL [1] was > 80%, the inhibition at 10 µg/mL [1] was > 80% and the mortality at 4 ppm (Cooperia curticei) was 100%. For the same molecule, the mortality at 20 ppm (Cooperia curticei) was 100%, the EC50 [2] was < 1 µg/mL and the mortality at 4 ppm (Haemonchus contortus) was 100%. The mortality at 20 ppm (Haemonchus contortus) was 100%, the EC50 [4] was < 1 µg/mL and the EC50 (C. elegans Slo-1a) was < 3.16 nM.

In the case of CN(C)c1c(C(=O)N[C@H]2CCOc3ccccc32)cnc2c(-c3cccc4[nH]ccc34)cccc12 [Example 73], the inhibition at 1 µg/mL [1] is reported as > 80%, the inhibition at 10 µg/mL [1] is reported as > 80% and the EC50 [2] is reported as < 0.1 µg/mL. The EC50 [3] was < 0.1 µg/mL, the EC50 [4] was < 1 µg/mL and the EC50 (C. elegans Slo-1a) was 3.16 to 31.6 nM.

With CCc1cc(Cl)cc(-c2cccc3c(CC)c(C(=O)N[C@H]4CCOc5ccccc54)cnc23)c1 [Example 351, 8-(3-chloro-5-ethylphenyl)-N-[(4S)-3,4-dihydro-2H-chromen-4-yl]-4-ethylquinoline-3-carboxamide] the EC50 [2] was < 0.1 µg/mL, the EC50 [3] was < 0.1 µg/mL and the chromatographic logP [5] was 5.1. The EC50 (C. elegans Slo-1a) was < 3.16 nM.

In the case of CCOc1c(C(=O)N[C@H]2CCc3ccccc32)cnc2c(-c3cc(Cl)cc(Cl)c3)cccc12 [Example 134, 8-(3,5-dichlorophenyl)-N-[(1S)-2,3-dihydro-1H-inden-1-yl]-4-ethoxyquinoline-3-carboxamide], the inhibition at 1 µg/mL [1] is reported as > 80%, the inhibition at 10 µg/mL [1] is reported as > 80% and the mortality at 4 ppm (Cooperia curticei) is reported as 100%. The mortality at 20 ppm (Cooperia curticei) was 100%, the EC50 [2] was < 0.1 µg/mL and the mortality at 4 ppm (Haemonchus contortus) was 100%. The mortality at 20 ppm (Haemonchus contortus) was 100%, the EC50 [3] was < 0.1 µg/mL and the EC50 [4] was < 0.1 µg/mL.

For CN(CC(=O)O)c1c(C(=O)N[C@H]2CCOc3ccccc32)cnc2c(-c3cc(Cl)cc(Cl)c3)cccc12 [Example 150, N-{8-(3,5-dichlorophenyl)-3-[(4S)-3,4-dihydro-2H-chromen-4-ylcarbamoyl]quinolin-4-yl}-N-methylglycine], the inhibition at 1 µg/mL [1] was > 80%, the mortality at 20 ppm (Cooperia curticei) was 100% and the EC50 [2] was < 1 µg/mL. The mortality at 4 ppm (Haemonchus contortus) was 80%, the mortality at 20 ppm (Haemonchus contortus) was 90% and the EC50 [3] was < 0.1 µg/mL. For the same molecule, the chromatographic logP [5] was 3.1 and the EC50 (C. elegans Slo-1a) was 3.16 to 31.6 nM.

In the case of Cc1cc(-c2cc(Cl)cc(Cl)c2)c2ncc(C(=O)N[C@H]3CCOc4ccccc43)c(N(C)C)c2c1 [Example 12], the inhibition at 1 µg/mL [1] is reported as > 80%, the inhibition at 10 µg/mL [1] is reported as > 80% and the EC50 [2] is reported as < 0.1 µg/mL. For the same molecule, the mortality at 20 ppm (Haemonchus contortus) was 80%, the EC50 [3] was < 0.1 µg/mL and the EC50 [4] was < 0.1 µg/mL. For the same molecule, the EC50 (C. elegans Slo-1a) was < 3.16 nM.

For O=C(N[C@H]1CCc2ccccc21)c1cnc2c(-c3cc(Cl)cc(Cl)c3)cccc2c1Cl [Example 3, 4-chloro-8-(3,5-dichlorophenyl)-N-[(1S)-2,3-dihydro-1H-inden-1-yl]quinoline-3-carboxamide], the EC50 [2] was < 1 µg/mL, the EC50 [3] was < 1 µg/mL and the EC50 [4] was < 1 µg/mL. The EC50 (C. elegans Slo-1a) was 3.16 to 31.6 nM.

For CN(c1c(C(=O)N[C@H]2CCOc3ccccc32)cnc2c(-c3cccc(Cl)c3Cl)cccc12)C1COC1 [Example 331, 8-(2,3-dichlorophenyl)-N-[(4S)-3,4-dihydro-2H-chromen-4-yl]-4-[methyl(oxetan-3-yl)amino]-quinoline-3-carboxamide], the inhibition at 1 µg/mL [1] was > 80%, the mortality at 20 ppm (Cooperia curticei) was 90% and the EC50 [2] was < 0.1 µg/mL. The mortality at 20 ppm (Haemonchus contortus) was 100%, the EC50 [3] was < 0.1 µg/mL and the chromatographic logP [5] was 3.14. The EC50 (C. elegans Slo-1a) was < 3.16 nM.

In the case of CN(C)c1c(C(=O)N[C@H]2CCOc3ccccc32)cnc2c(-c3cccc(Cl)c3)c(F)ccc12 [Example 141, 8-(3-chlorophenyl)-N-[(4S)-3,4-dihydro-2H-chromen-4-yl]-4-(dimethyl-amino)-7-fluoroquinoline-3-carboxamide], the inhibition at 10 µg/mL [1] is reported as > 80%, the EC50 [2] is reported as < 0.1 µg/mL and the EC50 [3] is reported as < 0.1 µg/mL. The EC50 [4] was < 0.1 µg/mL and the EC50 (C. elegans Slo-1a) was < 3.16 nM.
